Experimental data: US12643913B2, “Mcl-1 inhibitor formulations” (AMGEN INC., priority 2020, dated 2026)
≈ marks a conversion by molar mass, not a printed value. Like-named read-outs stand apart in the source and are kept apart here.

Columns and labels:
[1] = Solubility of AMG 397 in common spray-drying solvents; assay type: physicochemical
Method: Solvent selection: The solubility of AMG 397 was measured in solvents commonly used for spray drying. […] Based on the solubility data, tetrahydrofuran (THF) was selected as a solvent for the initial spray drying-work and further work was conducted in DCM.
AMG 397 is known to form solvates with many solvents. The formation of a solvate can lead to precipitation from solution due to the lower solubility in the solvent. Care must be taken to select a solvent and concentration of AMG 397 which can be maintained for the duration of the spray-drying process. The solubility of AMG 397 was highest in DCM where concentrations >100 mg/mL were achieved. Both DCM and THF are ICH class II solvents with residual solvent limits of 600 and 720 ppm, respectively. Therefore, the residual solvent levels must be removed to below these levels during the secondary drying process.

[2] = Stability of AMG 397 in THF and DCM solution at 1 mg/mL, room temperature, amber and clear vials (peak area % at 280 nm); assay type: physicochemical; conditions: for Peak Area % (280 nm), AMG 397 peak RRT 1.00: 1 mg/mL, room temperature
Method: The stability of AMG 397 was assessed in both THF and DCM over 24 hours to cover the processing time in the solvent. The stability was assessed in both amber and clear glass vials to assess the impact of light on stability.
Light had little impact on degradation up to 72 hours in DCM.

solubility ([1]; Dichloromethane (DCM)): > 100000 µg/mL
solubility ([1]; Tetrahydrofuran (THF)): 33500 µg/mL (≈ 43800 µM)
solubility ([1]; acetone, organic solvent or mixture, read-out: Solubility): 370 µg/mL (≈ 483 µM)
solubility ([1]; ethanol, organic solvent or mixture, read-out: Solubility): 150 µg/mL (≈ 196 µM)
solubility ([1]; ethyl acetate, organic solvent or mixture, read-out: Solubility): 750 µg/mL (≈ 980 µM)
solubility ([1]; methanol, organic solvent or mixture, read-out: Solubility): 90 µg/mL (≈ 118 µM)
solubility at 24 h ([1]; organic solvent or mixture, thermodynamic from solid, THF, after 24 hours, extended stirring at room temperature, solid precipitated, read-out: Final solubility in THF): 33500 µg/mL (≈ 43800 µM)
solubility ([1]; organic solvent or mixture, thermodynamic from solid, THF, before extended stirring, read-out: Solubility in THF, initially): > 50000 µg/mL
solubility ([1]; organic solvent or mixture, DCM, concentrations achieved, read-out: Solubility in DCM): > 100000 µg/mL
Solubility in THF in the presence of water ([1]; various ratios of THF-water): drops significantly
solubility ([1]; water, read-out: Solubility): 7 µg/mL (≈ 9.14 µM)
Peak Area % (280 nm), AMG 397 peak RRT 1.00 ([2]; DCM, 2 Hrs, Amber): 99.49%
Peak Area % (280 nm), AMG 397 peak RRT 1.00 ([2]; DCM, 2 Hrs, Clear): 99.47%
Peak Area % (280 nm), AMG 397 peak RRT 1.00 ([2]; DCM, 4 Hrs, Amber): 99.44%
Peak Area % (280 nm), AMG 397 peak RRT 1.00 ([2]; DCM, 4 Hrs, Amber (second 4 Hrs column)): 99.52%
Peak Area % (280 nm), AMG 397 peak RRT 1.00 ([2]; DCM, 24 Hrs, Amber): 99.44%
Peak Area % (280 nm), AMG 397 peak RRT 1.00 ([2]; DCM, 24 Hrs, Clear): 99.48%
Peak Area % (280 nm), AMG 397 peak RRT 1.00 ([2]; DCM, 72 Hrs, Amber): 99.13%
Peak Area % (280 nm), AMG 397 peak RRT 1.00 ([2]; DCM, 72 Hrs, Clear): 98.78%
Peak Area % (280 nm), AMG 397 peak RRT 1.00 ([2]; DCM, Initial): 99.52%
Stability in DCM ([2]; DCM, up to 24 hours at room temperature): stable
Peak Area % (280 nm), AMG 397 peak RRT 1.00 ([2]; THF, 2 Hrs, Amber): 99.41%
Peak Area % (280 nm), AMG 397 peak RRT 1.00 ([2]; THF, 2 Hrs, Clear): 98.98%
Peak Area % (280 nm), AMG 397 peak RRT 1.00 ([2]; THF, 4 Hrs, Amber): 99.51%
Peak Area % (280 nm), AMG 397 peak RRT 1.00 ([2]; THF, 4 Hrs, Clear): 97.51%
Peak Area % (280 nm), AMG 397 peak RRT 1.00 ([2]; THF, 24 Hrs, Amber): 98.62%
Peak Area % (280 nm), AMG 397 peak RRT 1.00 ([2]; THF, 24 Hrs, Clear): 92.68%
Peak Area % (280 nm), AMG 397 peak RRT 1.00 ([2]; THF, 72 Hrs, Amber): 97.20%
Peak Area % (280 nm), AMG 397 peak RRT 1.00 ([2]; THF, 72 Hrs, Clear): 90.59%
Peak Area % (280 nm), AMG 397 peak RRT 1.00 ([2]; THF, Initial): 99.52%
Stability in THF ([2]; THF, presence of light accelerated degradation): unstable
Structure (SMILES): CO[C@]1(CN2CCN3CCCC[C@@H]3C2)/C=C/C[C@H](C)[C@@H](C)S(=O)(=O)NC(=O)c2ccc3c(c2)N(C[C@@H]2CC[C@H]21)C[C@@]1(CCCc2cc(Cl)ccc21)CO3 [AMG 397, (1S,3′R,6′R,7′R,8′E,11'S,12′R)-6-chloro-7′-methoxy-11′,12′-dinethyl-7′-((9aR)-octahydro-2H-pyrido[1,2-a]pyrazin-2-ylmethyl)-3,4-dihydro-2H,15′H-spiro[naphthalene-1,22′-[20]oxa[13]thia[1,14]diazatetracyclo [14.7.2.0^3,6.0^19,24]pentacosa[8,16,18,24]tetraen]-15′-one 13′,13′-dioxide]
